In article PMC8121805, “Discovery of first-in-class inhibitors of ASH1L histone methyltransferase with anti-leukemic activity” (Nature Communications, 2021):
Entries after “also recorded” stand apart in the source; their conditions may differ.

Assays:
ASH1L SET domain = molecular target: T1, ASH1L SET domain (Homo sapiens, UniProt Q9NR48); experiment: NMR titration (1H-15N TROSY-HSQC); format: binding; details: linear chemical shift perturbations up to 1 mM
T1 construct: ASH1L SET domain (amino acids 2069–2288) was expressed and purified; Mocr (N, cleaved yes); made in house; host or cells: E. coli BL21(DE3)

ASH1L S2259M = molecular target: T2, ASH1L S2259M (Homo sapiens, UniProt Q9NR48, S2264M); experiment: NMR binding to S2259M mutant; details: NMR chemical shift perturbations
T2 construct: ASH1L SET domain (2069–2288) in the buffer; made in house
Procedure: For fragment screening, we used an in-house library of 1600 fragment-like compounds with the following properties: average Mw = 183 Da (range of 84–345 Da), mean clogP = 1.5 (from −2.5 to 3.7), hydrogen bond acceptors: from 0 to 6 (median = 3), hydrogen bond donors: 0 to 3 (median = 1).
Supplementary Figure 2. Binding of ASH1L inhibitors. (a) Superposition of the H- N TROSY-HSQC spectra of 100 µM ASH1L SET with 5% DMSO (black) or with 1 mM of compound 1 (red). Most perturbed residues are marked in boxes. (b) Superposition of the crystal structure of ASH1L SET domain (4YNM in PDB) and S2259M mutant of ASH1L (4YNP in PDB). (c) Superposition of the 1H-15N TROSY-HSQC spectra of 100 µM ASH1L S2259M mutant

Kd (ASH1L SET domain): > 1000 µM
SMILES: NC(=S)c1cccc(-n2cccc2)c1 [compound 1]
binding to ASH1L S2259M mutant (ASH1L S2259M): no binding; also recorded: not bind to the S2259M mutant
